The values below come from paper PMC7724566, “Prospects for Clinical Development of Stat5 Inhibitor IST5-002: High Transcriptomic Specificity in Prostate Cancer and Low Toxicity In Vivo” (Cancers, 2020).

SMILES strings stand for the structures.

In one data set the target is TYK2 (Homo sapiens, UniProt P29597). Nature of the data set: Cell-based tyrosine phosphorylation of Jak kinases (IP/immunoblot). The conditions noted are these: 6 µM, 6 h. More on the design: endogenous in cells; host or cells: DU145 and CWR22Pc. The source says: (§1) Figure 5 Both IST5 and IST5-M suppress dimerization of Stat5 with similar efficacies in prostate cancer cells. (A), IST5 and IST5-M inhibit equally potently dimerization of Stat5 in native-gel-based Stat5 dimerization assay. CWR22Rv1 cells were transfected with STAT5A-eYFP (Stat5 wild type), STAT5A-N642H-eYFP (constitutive activated Stat5 by N642H mutation, as a positive control) or STAT3-eYFP (Stat3 wild type, as a negative control) constructs for 3 days. CWR22Rv1 cells were serum-starved for 16 h, pretreated with vanadate (1 mM) for 2 h, followed by treatment with vehicle, IST5 and IST5-M (1 µM) for 6 h and stimulation with Prl (10 nM) for 1 h. Dimerization of Stat5 was analyzed by detection of the eYFP fluorescence of the native Coomassie gel. (B), IST5 and IST5-M inhibited cytokine-induced dimerization of Stat5 with high efficacy in PC cells. PC-3 cells were co-transfected with pCMV-3Flag-Stat5a, pCMV-3Myc-Stat5a, and pPrlR plasmids. Cells were serum-starved for 16 h, pretreated with IST5, IST5-M or vehicle at indicated concentrations for 2 h, followed by stimulation with Prl (10 nM) for 30 min. Anti-MYC mAb was utilized to immunoprecipitate the MYC-tagged Stat5a and blotted with anti-FLAG mAb or anti-MYC mAb, as indicated. […] (C), densitometric analyses of the Stat5 dimerization data based on co-immunoprecipitations and immunoblotting in (B). […] Prostate cancer cells were treated with IST5 (6 µM) or vehicle for 6 h. Jak1, Jak2, Jak3 and Tyk2 were immunoprecipitated and blotted with anti-phospho-tyrosine, Jak1, Jak2, Jak3 and Tyk2 antibodies. Whole cell lysates (WCL) were immunoblotted for actin. (E), differences in posttranslational modifications were detected between native and recombinant STAT5a using mass spectrometry. Native STAT5a from CWR22Rv1 cells and recombinant STAT5a from E. coli were gel-purified, digested using trypsin, and analyzed by bottom-up mass spectrometry. Native full-length STAT5a (blue) is show with recombinant STAT5A highlighted (red). Sites of acetylation and phosphorylation from the respective sources are noted including two previously published sites of phosphorylation (asterisk).
(§2) Given that IST5 suppresses phosphorylation of Stat5 in PC cells, it is possible that IST5 inhibits the kinase(s) responsible for Stat5 phosphorylation and activation in PC cells. To evaluate if IST5 affects kinase activity in cancer cells, we tested kinase inhibitory activity of IST5 in two custom-tailored panels including 54 relevant kinases (Table 1), including Jak1, Jak2, Jak3, Tyk2, Abl1, Abl2, Lck, Fyn, Src and TrkB/C. In addition, we further tested if IST5 inhibits tyrosine phosphorylation of Jak1, Jak2, Jak3 or Tyk2 using a cell-based assay (Figure 5D), where phosphorylation of the kinase is indicative of enzymatic kinase activity. DU145 and CWR22Rv1 cells were treated with IST5 (6 µM) for 6 h followed by immunoprecipitation of Jak1, Jak2, Jak3 and Tyk2 and immunoblotting with anti-phospho-tyrosine antibody. […] Collectively, these findings indicate that the inhibitory effect of IST5 on Stat5 phosphorylation in cancer cells is not due to inhibition of Jak2 or other key kinases including Jak1, Jak3, Tyk2, Src, Lck, Fyn, TrkB/C, Abl1 or Abl2 (Table 1, Figure 5D).
(§3) Cell pellets were solubilized in the lysis buffer (10 mM Tris-HCl (pH 7.6), 5 mM EDTA, 50 mM sodium chloride, 30 mM sodium pyrophosphate, 50 mM sodium fluoride, 1 mM sodium orthovanadate, 1% Triton X-100, 1 mM phenylmethylsulfonyl fluoride, 5 µg/mL aprotinin, 1 µg/mL pepstatin A and 2 µg/mL leupeptin), and protein concentrations of clarified cell lysates were determined by a simplified Bradford method (Bio-Rad, Hercules, CA, USA). The whole cell lysates were immunoprecipitated with polyclonal antibodies (Table S1) followed by incubation with protein A-Sepharose beads (GE Healthcare, Chicago, IL, USA). […]
For orientation: In western blotting, separated proteins are transferred to a membrane and probed.

The target in a further data set is JAK1 (Homo sapiens, UniProt P23458). The description is as above. The arrangement: endogenous in cells; host or cells: DU145 and CWR22Pc. The conditions noted are these: 6 µM, 6 h.
Source text: as §1, §2, §3

The subject of another data set is C57BL/6j mice. Description: Sub-chronic toxicity study (10 days), hematology. The class given is in vivo. The conditions noted are these: daily i.p. 10 days, blood. As for the experimental part:
The sub-chronic toxicity study (10 days) was carried out in C57BL/6J mice (8 weeks) (stock 000664) (n = 10/dose group 5 of each sex). IST5 was administered daily (0, 10, 30 and 100 mg/kg) via i.p. injection. Vehicle (0 mg/kg) group mice received a single i.p. injection of 0.3% hydroxypropyl cellulose. Plasma samples were analyzed for aspartate aminotransferase (AST), alanine aminotransferase (ALT), sorbitol dehydrogenase (SDH), alkaline phosphatase (ALP), γ-lutamyltransferase (GGT), lactate dehydrogenase (LDH), bilirubin (TBIL), protein (TP), glucose (GLU), blood urea nitrogen (BUN), creatinine (CREAT), and electrolytes (Na, K, Cl, Ca, CO2) (Marshfield Labs, WI, USA). A detailed hematological analysis was carried out on the sub-mandibular blood samples of mice collected at the end of the protocol and analyzed for white blood cells, red blood cells, hemoglobin, lymphocyte counts, monocytes, eosinophils and granulocytes. Brain, liver, heart, kidney and spleen were harvested, weighed and fixed in 10% buffered formalin and processed for histopathological analysis. In histopathological analysis, gross morphology and ultra-structural change were assessed. The clinical chemistry parameters measured were the same as those used for the acute toxicity study.

Chain of TYK2 (P29597 whole entry): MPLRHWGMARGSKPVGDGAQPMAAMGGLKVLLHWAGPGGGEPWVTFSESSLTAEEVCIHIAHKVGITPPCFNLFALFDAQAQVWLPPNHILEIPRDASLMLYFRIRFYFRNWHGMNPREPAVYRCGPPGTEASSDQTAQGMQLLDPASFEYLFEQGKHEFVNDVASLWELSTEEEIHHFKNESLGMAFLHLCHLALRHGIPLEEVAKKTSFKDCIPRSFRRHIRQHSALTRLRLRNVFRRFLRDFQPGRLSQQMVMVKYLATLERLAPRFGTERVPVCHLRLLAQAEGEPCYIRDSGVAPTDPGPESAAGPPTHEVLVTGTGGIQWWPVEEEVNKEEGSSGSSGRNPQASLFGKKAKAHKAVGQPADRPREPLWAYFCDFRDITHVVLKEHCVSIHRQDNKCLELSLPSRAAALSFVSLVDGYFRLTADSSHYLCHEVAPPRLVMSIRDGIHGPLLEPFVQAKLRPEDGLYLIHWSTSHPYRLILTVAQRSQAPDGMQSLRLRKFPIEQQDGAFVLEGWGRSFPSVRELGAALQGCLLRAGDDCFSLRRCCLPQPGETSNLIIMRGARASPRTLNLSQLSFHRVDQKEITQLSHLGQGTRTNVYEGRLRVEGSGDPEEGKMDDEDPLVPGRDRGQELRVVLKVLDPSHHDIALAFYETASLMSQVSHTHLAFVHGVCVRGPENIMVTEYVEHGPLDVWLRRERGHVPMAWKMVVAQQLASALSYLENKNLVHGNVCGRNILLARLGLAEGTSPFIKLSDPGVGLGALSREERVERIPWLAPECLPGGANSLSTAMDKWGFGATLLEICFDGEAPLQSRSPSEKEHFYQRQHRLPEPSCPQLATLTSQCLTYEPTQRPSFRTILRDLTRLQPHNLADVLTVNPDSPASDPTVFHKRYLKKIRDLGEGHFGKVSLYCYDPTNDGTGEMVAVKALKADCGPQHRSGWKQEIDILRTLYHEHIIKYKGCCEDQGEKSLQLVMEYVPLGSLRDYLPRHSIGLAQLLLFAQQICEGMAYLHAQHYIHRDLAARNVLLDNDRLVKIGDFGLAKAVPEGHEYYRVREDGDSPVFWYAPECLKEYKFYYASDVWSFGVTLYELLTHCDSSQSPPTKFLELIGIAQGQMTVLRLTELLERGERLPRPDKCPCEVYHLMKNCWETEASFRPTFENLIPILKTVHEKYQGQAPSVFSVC
Chain of JAK1 (P23458 whole entry): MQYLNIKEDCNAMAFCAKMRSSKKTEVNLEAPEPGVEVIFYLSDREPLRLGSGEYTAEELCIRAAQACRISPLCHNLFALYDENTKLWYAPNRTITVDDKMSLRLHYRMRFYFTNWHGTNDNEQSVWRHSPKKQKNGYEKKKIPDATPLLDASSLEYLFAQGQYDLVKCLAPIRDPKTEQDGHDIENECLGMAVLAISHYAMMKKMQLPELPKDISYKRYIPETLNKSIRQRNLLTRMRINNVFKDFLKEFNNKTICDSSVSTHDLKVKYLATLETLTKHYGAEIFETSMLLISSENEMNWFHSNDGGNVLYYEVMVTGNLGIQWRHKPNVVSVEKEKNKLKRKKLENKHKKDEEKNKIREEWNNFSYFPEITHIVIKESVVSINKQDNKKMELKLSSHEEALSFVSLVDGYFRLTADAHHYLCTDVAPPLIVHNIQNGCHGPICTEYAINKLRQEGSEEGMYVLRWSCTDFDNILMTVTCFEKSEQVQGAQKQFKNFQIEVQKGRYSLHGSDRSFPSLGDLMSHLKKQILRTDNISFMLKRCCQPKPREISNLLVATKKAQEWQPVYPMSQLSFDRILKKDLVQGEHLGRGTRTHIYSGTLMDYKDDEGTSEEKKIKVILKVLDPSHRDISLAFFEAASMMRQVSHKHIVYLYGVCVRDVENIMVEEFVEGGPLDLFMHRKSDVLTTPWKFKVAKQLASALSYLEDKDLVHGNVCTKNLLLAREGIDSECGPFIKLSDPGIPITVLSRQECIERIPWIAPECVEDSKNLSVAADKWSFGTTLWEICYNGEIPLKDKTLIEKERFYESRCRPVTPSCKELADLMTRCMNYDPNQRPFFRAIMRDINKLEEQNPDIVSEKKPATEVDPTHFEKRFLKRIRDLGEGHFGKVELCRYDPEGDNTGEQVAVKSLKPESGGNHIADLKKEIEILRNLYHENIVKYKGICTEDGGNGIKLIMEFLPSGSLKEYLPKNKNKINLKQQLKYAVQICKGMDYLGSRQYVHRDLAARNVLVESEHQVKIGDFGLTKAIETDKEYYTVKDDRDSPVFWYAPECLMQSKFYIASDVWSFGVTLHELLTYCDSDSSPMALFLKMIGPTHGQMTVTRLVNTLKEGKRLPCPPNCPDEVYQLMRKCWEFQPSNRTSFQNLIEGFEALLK

Take `O=P(O)(O)OCC1OC(n2cnc3c(NCc4ccccc4)ncnc32)C(O)C1O` (centres unmarked) [IST5]: on TYK2 (CWR22Pc cells), the “phosphorylation of Tyk2” value is “did not alter”. The “phosphorylation of Tyk2” value on TYK2 (DU145 cells) is “did not alter”. Further, the “phosphorylation of Jak1” value at JAK1 (CWR22Pc cells) was “did not alter”. Besides, on JAK1 (DU145 cells), the “phosphorylation of Jak1” value is given as “did not alter”. In the data set on C57BL/6j mice (10 mg/kg), this molecule registered an EOS of 3.88 ± 1.0%, a GRA of 25.9 ± 2.3%, an HGB of 19.8 ± 1.4 g/dL and an LYM of 67.8 ± 2.0%. For the same molecule, in the data set on C57BL/6j mice (10 mg/kg), the MON came out at 6.29 ± 0.75%, the PLT was 614 ± 119 10^3/µL, the RBC amounted to 10.59 ± 0.2 M/uL and the WBC came to 4.18 ± 0.65 K/uL. In the data set on C57BL/6j mice (30 mg/kg), this molecule registered an EOS of 5.29 ± 1.35%, a GRA of 29.7 ± 6.7%, an HGB of 18.2 ± 2.5 g/dL and an LYM of 63.23 ± 6.7%. For the same molecule, in the data set on C57BL/6j mice (30 mg/kg), the MON was 7.06 ± 0.5%, the PLT is 553 ± 154 10^3/µL, the RBC came out at 9.61 ± 0.31 M/uL and the WBC was 3.76 ± 0.55 K/uL.
